Like-named read-outs stand apart in the source and are kept apart here.
Assays:
C. elegans [1] = test: Thermal avoidance (TAV) single intensity testing (6% laser intensity); assay type: in vivo
Method: (§1) One 24 well microtiter plate was set up and incubated overnight on the shaker at 20° C. Each well on the plate was set up with 600 L3/L4-stage N2 animals in NGM with a 1:20 dilution of concentrated HB101 E. coli (food source) in a volume of 300 μl. Before the animal/HB101 solution was added, test compounds were pipetted into wells. 3 μl each for the DMSO controls and LA dilutions were added to each well (1:100 dilutions). Controls and LA dilutions were done in triplicate (total of 9 wells).
6% Response tests—setup: All 9 wells from the 24 well plate were used for 6% testing and the entire well contents (600 animals) were used for each test. Prior to being placed on the agar plate for TAV testing each sample was processed as described for ‘Dose Responses’.
Dose Responses—general notes on analysis: Analysis similar as described in ‘Dose Responses’. In addition, ‘Response ratios’ as well as ‘A Speed responses’ both give measures of how much individual animals changed speed in response to the stimulus (additional information available upon request).
as §1, with “wells. 6” for “wells. 3”, “the water” for “the DMSO”, “and compound” for “and LA”, “well (1:50” for “well (1:100”, “of 15” for “of 9”
6% Response tests—setup: All 15 wells from the 24 well plate were used for 6% testing) and the entire well contents (600 animals) were used for each test. Prior to being placed on the agar plate for TAV testing each sample was processed as described for ‘Dose Responses’.
as §1, with “LC” for “LA”

C. elegans [2] = test: Thermal avoidance (TAV) 3 step dose response testing; assay type: in vivo; conditions: for effects indicating increased sensory sensitivity: 0%, 6%, 12% laser intensity
From the text: The present invention includes a series of compounds that may be useful for increasing sensory neuron function in certain human neuropathological conditions. C. elegans contains a number of sensory neurons which are responsible for detecting a variety of external stimuli. One such stimulus (heat) can be detected and quantified in C. elegans by the use of thermal avoidance (TAV) technology available through NemaRx. The goal of this experiment was to provide an initial characterization of the compounds via TAV. Specifically, it was asked whether any of these compounds can lead to an increase in the thermal stimulus-induced behavioral response measured by TAV. N2 strain C. elegans animals were used for this project, which have ‘normal’, i.e. wildtype, sensory neuron function. Four compounds were received by NemaRx for TAV testing. These compounds were:
(§2) One 24 well microtiter plate was set up and incubated overnight on the shaker at 20 C. Each well on the plate was set up with 600 L3/L4-stage N2 animals in NGM with a 1:20 dilution of concentrated HB101 E. coli (food source) in a volume of 300 μl. Before the animal/HB101 solution was added, test compounds were pipetted into wells. For water controls and compound stocks/dilutions in water (DHLA, NAC) 6 μl was added to each well (1:50 dilutions). For DMSO controls and compound stocks/dilutions in DMSO (LA) 3 μl was added to each well (1:100 dilutions). No OD620 measurements were taken but the animals were visually scored after 19 h incubation.
Dose Responses—setup: All of the wells from the 24 well plate were used for dose response testing and the entire well contents (600 animals) were used for each test. Prior to being placed on the agar plate for TAV testing each sample was processed as follows: • sample were transferred to glass tube containing 7 ml PBS • animals were allowed to settle for 5 minutes before most of the supernatant was removed (approx. 0.5 ml remaining in tube) • 7 ml PBS was then added, mixed and animals were allowed to settle for 5 minutes most of the supernatant was then removed • animals were removed and transferred to TAV testing plate (NRx Application pattern A) • plate was allowed to dry for 10 minutes (plate cover removed) and TAV testing was initiated. Per plate settings for the dose response experiments were as follows:
Dose Responses—general notes on analysis: A response of the animals to a thermal stimulus (laser) which is applied to the head region can be detected both by a change in the direction of movement, as well as by a change in speed occurring within the test interval where the stimulus is applied. • direction of movement. […] Animals that show a strong change in the direction of movement, i.e. reversals, are classified as LR5 responders. […] LR5 responders show a thermal intensity-dependent increase in the speed of movement (starting off with less than <prelaser speed at low intensities up to > pre-laser speed at high intensities)
The dose response experiments for the current project were carried out with 0% (background control), 6% and 12% settings of laser intensity. In practice, 6% is on the edge of laser intensity required to detect an increase in the number of LR5 responders. As such, 6% should be a useful intensity-setting to detect compound-induced increased sensitivity in the animals. The 12% setting was chosen because this intensity typically gives a robust increase in the number of LR5 responders.
Total Responder speeds, ‘LR1 Responder speeds’ and ‘LR5 Responder speeds’ are shown as normalized speeds to allow better comparison between samples. For normalization purposes the average pre-laser speed is set at 1.0 and responder speeds are calculated relative to this value.
One 24 well microtiter plate was set up and incubated overnight on the shaker at 20° C. Each well on the plate was set up with 600 L3/L4-stage N2 animals in NGM with a 1:20 dilution of concentrated HB101 E. coli (food source) in a volume of 300 μl. […]

C. elegans [3] = test: Visual scoring of C. elegans after overnight incubation with compound in 24 well plate; assay type: in vivo; conditions: DHLA1, 1:500 final concentration in well; 19 h incubation; L3/L4-stage N2 animals
Method: as §2
as §2, with “at 20°” for “at 20”, “For” for “For water controls and compound stocks/dilutions in water (DHLA, NAC) 6 μl was added to each well (1:50 dilutions). For”, “DMSO (LC)” for “DMSO (LA)”, “h incubation).” for “h incubation.”
as §2, with “at 20°” for “at 20”, “For” for “For water controls and compound stocks/dilutions in water (DHLA, NAC) 6 μl was added to each well (1:50 dilutions). For”, “DMSO (LC)” for “DMSO (LA)”, “after 22” for “after 19”, “h incubation).” for “h incubation.”

rats [4] = conditions: cited from earlier work
mice and rats = conditions: individually or in combination at high doses, mice and rats; cited from earlier work
rats [5] = conditions: 10 mg/kg cisplatin s.c. seven days, oral 300 mg/kg acetyl L-carnitine, 300 mg/kg carnitine mixture, 50 mg/kg α-lipoic acid; cited from earlier work
[6] = test system: patients with chronic critical limb ischaemia; conditions: 1.2 g/day i.v. infusion for two weeks with calcium heparin 25,000 U/day s.c.; over baseline; cited from earlier work
[7] = test system: male patients with intermediate claudication; conditions: cited from earlier work; for TcPCO: after treatment
C. elegans [8] = test: Toxicity testing in C. elegans, 96 well plate, bacterial clearance (OD620); assay type: in vivo; conditions: highest concentration tested, 8 mM, L1-stage N2 animals, OD620 up to 44 hours, HCl
Method: The work plan included a i) characterization of the compounds for toxicity in C. elegans and then, using subtoxic concentrations, a ii) characterization of compound effects on neuronal sensitivity as detected by TAV technology. Toxicity characterization follows a well established standard operating protocol used in previous toxicity-type assays in C. elegans. The initial TAV characterization of compound-mediated effects on C. elegans used a number of compound concentrations and incubation times that were selected by NemaRx as being most likely to detect any TAV-related effects that the compounds may have. […] 0% provides a ‘background’ measure, 6% typically gives intermediate TAV responses (and as such should provide a good starting point to detect compound-mediated increased TAV responses), and 12% usually gives robust responses. No obvious effects were detected for either of the four compounds. While the experimental setup provides a good first pass, the limitation lies in the relatively small number of animals that are assayed at each intensity (30). Subtle effects compound-mediated up-regulation at 6% laser intensity may be missed. • Single Intensity Testing: The two highest non-toxic compound concentrations for each of the four compounds were tested at 6% laser intensity. The number of datapoints collected was between 50-80 LA and >100 for the three other compounds. […] The experiment was carried out in quadruplicate. […] Stock Dilution Setup
Two 96 well microtiter plates set up which were incubated at 20 C (both 96 well plates were identical, i.e. the experiment was done in duplicate). Each well on the plates was set up with 100 L1-stage N2 animals in NGM with a 1:20 dilution of concentrated HB101 E. coli (food source) in a volume of 50 μl. Compounds (see below) were then added to the wells. For water controls and compound stocks/dilutions in water (DH LA, NAC) 1 μl was added to each well (1:50 dilutions). For DMSO controls and compound stocks/dilutions in DMSO (LA) 0.5 μl was added to each well (1:100 dilutions). […]

[9] = after 600 mg i.v. infusion, compared to pre-treatment values

O=C(O)CCCC[C@@H](S)CCS (racemic) [DHLA, Dihydrolipoic acid]
effect such as increased percentage of LR5 responders (C. elegans [1]; 1:1,000 or 1:2,500): No obvious effect detected
response of animals that show a LR5 response ('Responder ratios', 'A Speed responses') (C. elegans [1]; 1:2,500 concentration): slightly stronger response
effects indicating increased sensory sensitivity (C. elegans [2]; even at highest concentration of 1:500): No obvious effects detected
percentage of LR5 responders at 6% (C. elegans [2]; second highest concentration (DHLA2)): relatively high
visual scoring of well clearance (C. elegans [3]): some bacteria remaining

C[N+](C)(C)CC(O)CC(=O)[O-] (centres unmarked) [Carnitine]
area of skin flap necrosis (rats [4]; group 1, 50 mg/kg/day for 1 week): 12.55 cm^2
area of skin flap necrosis (rats [4]; group 2, 100 mg/kg/day for 1 week): 9.23 cm^2
tolerability and toxicity (mice and rats): good tolerability and limited toxicity

N.N.[Cl][Pt][Cl] [Cisplatin]
Equilibrium time (rats [5]): 8.4 ± 0.8 s

CCC(=O)O[C@H](CC(=O)[O-])C[N+](C)(C)C [L-Propionyl Carnitine]
decrease in mean pain score [6]: 83%
decrease in mean ulcer size (diameter) [6]: 48%
increase in mean pain free walking distance (PWD) [6]: 78%
Perfusion units [7, 9]: did not change significantly
TcPO [7, 9]: did not change significantly
resting TcPCO ([7]; after 600 mg i.v. infusion): no significant effects
TcPCO ([7]; at hypoxia point): 90.2 mm Hg
Mean laser-Doppler power spectrum ([7]; at rest, after 600 mg i.v. infusion): 0.89 units
Mean laser-Doppler power spectrum ([7]; during reperfusion, after 600 mg i.v. infusion): 2.24 units
TcPCO ([7]; during reperfusion): 103.5 mm Hg

CC(=O)O[C@H](CC(=O)O)C[N+](C)(C)C.[Cl-] [NAC, N-Acetyl carnitine HCl]
effects indicating increased sensory sensitivity (C. elegans [1]; 8 mM or 4 mM): No effects detected
effects indicating increased sensory sensitivity (C. elegans [2]; even at highest concentration of 8 mM): No obvious effects detected
toxicity (C. elegans [8]): No toxic effects
toxicity (C. elegans [8]; listed as N-Acetyl carnitine): no toxicity observed

From patent publication US8318954B2, “Cleavable carnitine compound” (Nou Life Sciences, Inc., priority 2006, dated 2012)
